Laboratory results published in publication PMC12190436, “5-Ene-2-arylaminothiazol-4(5H)-ones Induce Apoptosis in Breast Cancer Cells” (Cells, 2025).

Test system: RPMI-8226
Assay type: cell-based

In the case of `COc1cc(NC2=NC(=O)C(=Cc3c[nH]c4ccccc34)S2)cc(OC)c1OC` [Les-6418, 5-((1H-Indol-3-yl)methylene)-2-((3,4,5-trimethoxyphenyl)amino)thiazol-4(5H)-one], the GI50 (Homo sapiens, RPMI-8226, 48 h) is reported as 5.73 µM, the CC50 (Homo sapiens, RPMI-8226, 48 h, read-out: LC50 (the source's name)) is reported as > 100 µM and the TGI (RPMI-8226, 48 h) is reported as > 100 µM. The “SI (TGI)” value (RPMI-8226, MG_MID_60/value) was 0.19.
